Measured values taken from patent US20140271734A1, “BILE ACID RECYCLING INHIBITORS FOR TREATMENT OF BARRETT'S ESOPHAGUS AND GASTROESOPHAGEAL REFLUX DISEASE” (LUMENA PHARMACEUTICALS, INC., priority 2013, published 2014).

Legend:
bile acids in the feces = test: Fecal bile acid excretion in ZDF rats after oral 264W94; format: in vivo, Zucker diabetic fatty rats (ZDF/GmiCrl-fa/fa)
Procedure: (§1) Male Zucker diabetic fatty rats (ZDF/GmiCrl-fa/fa) were purchased from Charles River (Raleigh, N.C.) and housed under controlled conditions (12:12 light-dark cycle, 24° C. and 50% relative humidity) with free access to rodent food (Purina 5008, Harlan Teklad, Indianapolis, Ind.). All rats arrived at seven weeks of age (±3 days). After a one-week acclimation period, rats were anesthetized with isoflurane (Abbott Laboratories, IL) and tail-vein blood samples were collected at 9 am without fasting. Blood glucose levels were measured using a glucometer (Bayer, Leverkusen, Germany). In order to ensure balanced treatment groups, ZDF rats were assigned to six treatment groups based upon baseline glucose: vehicle (0.5% HPMC, 0.1% Tween80) and five doses of 264W94 (0.001, 0.01, 0.1, 1, 10 mg/kg). All treatments were given via oral gavage twice a day and animals were followed for two weeks with blood samples collected from tail vein at the end of each week at 9 am without fasting. Fecal samples were collected for 24 hours during the second week of treatment.
(§2) Non-esterified fatty acids (NEFA), bile acids, and bile acids in fecal extraction were measured using the Olympus AU640 clinical chemistry analyzer (Beckman Coulter, Irving, Tex.).

plasma bile acid = test: Plasma bile acid concentrations in ZDF rats; format: in vivo
Procedure: as §1, §2
Male ZDF rats (n=4) were administered vehicle, SC-435 (1, 10 or 30 mg/kg) or LUM002 (0.3, 1, 3, 10 or 30 mg/kg) by oral gavage twice a day for 2 weeks. Plasma bile acid levels were determined at the end of the second week. […] Data are expressed as mean values±SEM.

[1] = test system: Alkaline Phosphatase (ALP); conditions: twice daily oral gavage; Week 3
Procedure: This study was conducted to determine the effects of two non-absorbed ASBTi compounds in the ZDF rat model after 3 weeks of treatment.
Animals were acclimatized for 5-7 days after arrival. […] The 2nd set of study was initiated after completion of the 1st. Test compound formulation prepared every other day and stored at 4° C. […] After 3rd week of treatment blood samples were collected by cardiac puncture from fasted animals for blood chemistry analysis: ALAT, ASAT, GGT, Alkaline Phosphatase and total Bile Acids. Tests were performed in contract clinical laboratory (Liver Profile SA320, Antech Diagnostics, Orange Country, Calif.).
Blood was collected by tail vein bleed weekly and after 3 weeks of treatment by cardiopuncture for serum tests. Data for each group is presented as the Mean Value±SEM. Statistically evaluation by t-test: *P<0.05, **P<0.01,***P<0.001 vs. vehicle group.

GLP-2 = GLP-2 in plasma of non-fasted ZDF rats, 2 weeks treatment; format: in vivo
total serum bile acids = test: Plasma total serum bile acids in ZDF rats, week 3; format: in vivo; conditions: twice daily oral gavage
plasma triglycerides = test: Plasma triglycerides in ZDF rats, week 3; format: in vivo; conditions: twice daily oral gavage, no dose-related response
plasma lipase = test: Plasma lipase in ZDF rats, week 3; format: in vivo; conditions: twice daily oral gavage
[2] = test system: Alanine Aminotransferase (ALAT); test: Plasma alanine aminotransferase in ZDF rats, week 3; format: in vivo; conditions: twice daily oral gavage
plasma amylase = test: Plasma amylase in ZDF rats, week 3; format: in vivo; conditions: twice daily oral gavage
Hemoglobin A1c (HbA1c) = test: Baseline-corrected percent HbA1c in ZDF rats; format: in vivo; conditions: twice daily oral gavage
[3] = 264W94 0.001-10 mg/kg oral gavage twice a day, 2 weeks

SMILES	Bile acids in the feces (bile acids in the feces; [3])	Fecal bile acid concentrations elevated vs vehicle treated rats (bile acids in the feces; 264W94 0.001-10 mg/kg oral gavage twice a day, 24 h feces in second week)	Fecal NEFA (bile acids in the feces; 264W94 oral gavage twice a day, 2 weeks)	ED50 (fecal bile acid elevation) (bile acids in the feces; oral gavage twice a day, 2 weeks) [mg/kg]	Plasma bile acid concentrations (plasma bile acid; [3])	Plasma alkaline phosphatase (ALP) [1]	GLP-2 in plasma (GLP-2)	Plasma total serum bile acids (SBA) (total serum bile acids)	Fasting plasma triglycerides (plasma triglycerides)	Plasma lipase (plasma lipase)	Plasma alanine aminotransferase (ALAT) [2]	Plasma amylase (plasma amylase)	Baseline-corrected percent HbA1c (Hemoglobin A1c (HbA1c))	Plasma bile acid levels (plasma bile acid; SC-435 1, 10 or 30 mg/kg, LUM002 0.3, 1, 3, 10 or 30 mg/kg, oral gavage twice a day, end of second week, n=4)
CCCC[C@]1(CC)CS(=O)(=O)c2cc(OC)c(OC)cc2[C@@H](c2ccccc2)N1 [Compound 264W94]	dose-dependently increased	up to 6.5 fold	slightly increased	0.17	decreased dose-dependently	–	–	–	–	–	–	–	–	–
CCCCC1(CCCC)CS(=O)(=O)c2ccc(N(C)C)cc2[C@@H](c2ccc(OCCCC[N+]34CCN(CC3)CC4)cc2)[C@H]1O.CS(=O)(=O)[O-] [SC-435, 1-[4-[4-[(4R,5R)-3,3-dibutyl-7-(dimethylamino)-2,3,4,5-tetrahydro-4-hydroxy-1,1-dioxido-1-benzothiepin-5-yl]phenoxy]butyl]4-aza-1-azoniabicyclo[2.2.2]octane methanesulfonate salt, reference compound]	–	–	–	–	–	significant reductions in ALP	significant elevations in GLP2 at higher doses	statistically significant reductions in SBA	statistically significant elevations	statistically significant reductions in plasma lipase at higher doses	Neither LUM002 nor SC-435 caused statistically significant reductions	Neither LUM002 nor SC-435 caused a statistically significant changes	significant dose-dependent reductions	decreased for all doses
